{"source": "patent US5945402A", "about": "(Genetech, Inc., priority 1995, dated 1999)", "key": {"[1]": {"test": "RP-HPLC stability of topical relaxin (3% methylcellulose gel)", "type": "physicochemical", "settings": "in contrast to shortened B-chain human relaxin", "method": "The RP-HPLC method used for analyzing the liquid relaxin formulation, described in Example I, was modified for use with topical relaxin samples. Due to the high viscosity of the gel, samples were diluted ten-fold with water, vortexed for ^~ 5 minutes to homogenize the gel, and left undisturbed to let the bubbles rise. Analysis of these samples was performed by injecting 250 μl onto a C4-300 SynChropak (4.6×250 mm) column at room temperature. The initial equilibration buffer was 18% acetonitrile, 0.1% trifluoroacetic acid. The elution was carried out by running a 1%/min. increasing linear acetonitrile gradient to a final concentration of 45% acetonitrile after 30 minutes. The flow rate was held constant at 1.0 ml/min. and the absorbance was monitored at 214 nm. The \"slowdown\" step (the time it takes to draw the viscous gel into the metering device) was increased from […].\nThree significant stability experiments were performed on the topical relaxin formulation. The first was to measure the stability of these preparations after being left out at room temperature for five weeks. The sample remained in the original syringe, subject to the fluctuations of temperature and light.\nThe second study was a measure of the stability of topical relaxin under well controlled conditions at 5° C. and 25° C. […]"}, "rabbit cervix": {"system": "rabbit cervix", "test": "Efficacy on ripening of the rabbit cervix, intravaginal gel", "type": "in vivo", "settings": "initial study, 300 μg/ml topical gel, 0.5 ml intravaginally, eighteen hours after application", "method": "Mature pregnant female New Zealand rabbits weighing 4.5 to 6.0 kg were studied. […] Both hormones were applied intravaginally by means of a syringe and a catheter in a volume of 0.5 ml. Control animals received the vehicle alone. After 16-18 hours, the animals were sacrificed using a lethal dose of pentobarbital. […] Paraffin sections were cut and stained with hematoxylin/eosin and alcian blue PAS. Sections were evaluated for general morphology, and specifically for the degree of separation of muscular tissue and collagen fibrils in the submucosa and for the presence of characteristic PAS positive giant cells, which are multinucleate cells of macrophage origin that normally infiltrate the cervix during labor. The measurement of giant cells is accomplished using the procedure described by MacLennan et al., Am J. Obstet. Gynecol., 152: 691-696 (1985)."}, "cervix [2]": {"system": "cervix", "settings": "2-mg dose in methylcellulose gel, MacLennan et al. (1981); cited from earlier work"}, "cervix [3]": {"system": "cervix", "settings": "3000 units in the cervical os, Perezgrovas and Anderson (1982); cited from earlier work"}}}
{"substance": "porcine relaxin", "values": [{"measurement": "degradation of 600 μg/ml porcine relaxin in 3% Methocel gel by HPLC", "setting": "[1]", "value": "degraded very little"}, {"measurement": "cervical ripening, morphology of the pregnant cervix", "setting": "rabbit cervix", "value": "significant dilation and cervical ripening were observed"}, {"measurement": "effect on cervical score", "setting": "cervix [2]", "value": "improve the cervical score"}, {"measurement": "time to increased dilatation of the cervix after infusion", "setting": "cervix [3]", "value": "≤ 8", "unit": "h"}]}
